Data on 14 compounds can be found in US11261209B2, “Enhanced coupling of stereodefined oxazaphospholidine phosphoramidite monomers to nucleoside or oligonucleotide” (Roche Innovation Center Copenhagen A/S, priority 2016, dated 2022).

Data set [1] is described as follows: Solubility of oxazaphospholidine phosphoramidite monomers in solvent, visual examination. Particulars: for Soluble after: 0 h MeCN + 2.5% pyridine / Soluble after: 0 h MeCN / Soluble after: 24 h MeCN + 2.5% pyridine / Soluble after: 24 h MeCN: 0.013 mmol amidite in 0.13 mL, room temperature; for Solubility after 24 hours in MeCN with addition of pyridine: MeCN with addition of pyridine (2.5%). In kind it is physicochemical. The procedure:
To a 1.5 mL vial was added 0.013 mmol of amidite after which the solid material was dissolved in 0.13 mL of solvent. Hereafter, the vial was capped, vortexed, and finally left at room temperature for 24 hours. Then, the dissolved material was visually examined regarding the solubility (FIG. 1). If the solution appeared cloudy or otherwise non-homogenous the solubility was set to “no”. If the solution appeared completely homogenous the solubility was set to “yes” (examination repeated after 24 hours).
Solubility of the following monomers was determined as per example 7.

Data set [2] is described as follows: Stability of amidite in solution by HPLC-MS (UV 254 nm, normalised to 0 hours). In kind it is physicochemical. As for the experimental part: Stability Determination Method: To complete the analysis the stability of the amidite was investigated using an Agilent 1100 series HPLC-MS with a gradient from 80% A (1% NH4OH in H2O) to 100% B (20% A in MeCN) and a Waters Xterra MS C18 2.1×100 mm column. The mass and UV peak of the mother compound was identified at 0 hours and at 24 hours. Hereafter, the relative stability compared to other by-products was reported by integrating the UV chromatogram (254 nm) and normalizing the area to the chromatogram recorded at 0 hours (FIG. 2).
To a 1.5 mL vial was added 0.013 mmol of amidite after which the solid material was dissolved in 0.13 mL of solvent (with and without Et3N, approximately 5-10 eq). Hereafter, the vial was capped, vortexed, and finally left at room temperature for 24 hours. To investigate the stability of the amidite an Agilent 1100 series HPLC-MS with a gradient from 80% A (1% NH4OH in H2O) to 100% B (20% A in MeCN) and a Waters Xterra MS C18 2.1×100 mm column was used. The mass and UV peak of the mother compound was identified at 0 hours and at 24 hours. Hereafter, the relative stability compared to other by-products was reported. This was again repeated after 48 hours.

Entries after “also recorded” stand apart in the source; their conditions may differ.

As to `COc1ccc(C(OC[C@H]2O[C@@H](n3cnc4c(NC(=O)c5ccccc5)ncnc43)C[C@@H]2O[P@]2O[C@@H](c3ccccc3)[C@H]3CCCN32)(c2ccccc2)c2ccc(OC)cc2)cc1` [D-DNA A], in data set [1], the “Soluble after: 0 h MeCN + 2.5% pyridine” value was “Yes”, the “Soluble after: 24 h MeCN + 2.5% pyridine” value was “Yes” and the “Solubility after 24 hours in MeCN with addition of pyridine” value (“Solubility after 24 hours … of pyridine” for short) is listed as “solubility of the monomer is preserved”. In data set [1] (MeCN), the “Soluble after: 0 h MeCN” value is reported as “Yes”, the “Soluble after: 24 h MeCN” value is given as “No” and the “Solubility after 24 hours in MeCN” value is “not soluble”.
For the compound `COc1ccc(C(OC[C@H]2O[C@@H](n3ccc(NC(C)=O)nc3=O)C[C@@H]2O[P@]2O[C@@H](c3ccccc3)[C@H]3CCCN32)(c2ccccc2)c2ccc(OC)cc2)cc1` [D-DNA C], in data set [1], the “Soluble after: 0 h MeCN + 2.5% pyridine” value is recorded as “Yes” and the “Soluble after: 24 h MeCN + 2.5% pyridine” value is recorded as “Yes”. Also, in data set [1] (MeCN), the “Soluble after: 0 h MeCN” value was “Yes” and the “Soluble after: 24 h MeCN” value is given as “No”.
In the case of `COc1ccc(C(OC[C@H]2O[C@@H](n3cnc4c(=O)[nH]c(/N=C/N(C)C)nc43)C[C@@H]2O[P@]2O[C@@H](c3ccccc3)[C@H]3CCCN32)(c2ccccc2)c2ccc(OC)cc2)cc1` [D-DNA G], in data set [1], the “Soluble after: 0 h MeCN + 2.5% pyridine” value was “Yes” and the “Soluble after: 24 h MeCN + 2.5% pyridine” value was “Yes”. Further, in data set [1] (MeCN), the “Soluble after: 0 h MeCN” value is “Yes” and the “Soluble after: 24 h MeCN” value is listed as “No”.
On to `COc1ccc(C(OC[C@H]2O[C@@H](n3cc(C)c(=O)[nH]c3=O)C[C@@H]2O[P@]2O[C@@H](c3ccccc3)[C@H]3CCCN32)(c2ccccc2)c2ccc(OC)cc2)cc1` [D-DNA T], for which, in data set [1], the “Soluble after: 0 h MeCN + 2.5% pyridine” value is listed as “Yes” and the “Soluble after: 24 h MeCN + 2.5% pyridine” value is on record as “Yes”. Also, in data set [1] (MeCN), the “Soluble after: 0 h MeCN” value is recorded as “Yes” and the “Soluble after: 24 h MeCN” value is “No”.
With `COc1ccc(C(OCC23COC(C(n4cnc5c(NC(=O)c6ccccc6)ncnc54)O2)C3OP2OC(c3ccccc3)C3CCCN32)(c2ccccc2)c2ccc(OC)cc2)cc1` [D-LNA A], in data set [1], the “Soluble after: 0 h MeCN + 2.5% pyridine” value was “Yes”, the “Soluble after: 24 h MeCN + 2.5% pyridine” value is reported as “Yes” and the “Solubility after 24 hours … of pyridine” value is recorded as “solubility of the monomer is preserved”. In data set [1] (MeCN), the “Soluble after: 0 h MeCN” value was “Yes”, the “Soluble after: 24 h MeCN” value is “No” and the “Solubility after 24 hours in MeCN” value was “not soluble”.
Turning to `COc1ccc(C(OCC23COC(C(n4cnc5c(=O)[nH]c(N=CN(C)C)nc54)O2)C3OP2OC(c3ccccc3)C3CCCN32)(c2ccccc2)c2ccc(OC)cc2)cc1` [D-LNA G], in data set [1], the “Soluble after: 0 h MeCN + 2.5% pyridine” value was “Yes” and the “Soluble after: 24 h MeCN + 2.5% pyridine” value is on record as “Yes”. In data set [1] (MeCN), the “Soluble after: 0 h MeCN” value is “Yes” and the “Soluble after: 24 h MeCN” value is “Yes”.
For `COc1ccc(C(OCC23COC(C(n4cc(C)c(=O)[nH]c4=O)O2)C3OP2OC(c3ccccc3)C3CCCN32)(c2ccccc2)c2ccc(OC)cc2)cc1` [D-LNA T], in data set [1], the “Soluble after: 0 h MeCN + 2.5% pyridine” value was “Yes” and the “Soluble after: 24 h MeCN + 2.5% pyridine” value is recorded as “Yes”. Besides, in data set [1] (MeCN), the “Soluble after: 0 h MeCN” value is reported as “Yes” and the “Soluble after: 24 h MeCN” value was “Yes”.
For `COc1ccc(C(OC[C@H]2O[C@@H](n3cnc4c(NC(=O)c5ccccc5)ncnc43)C[C@@H]2O[P@@]2O[C@H](c3ccccc3)[C@@H]3CCCN32)(c2ccccc2)c2ccc(OC)cc2)cc1` [L-DNA A], in data set [1], the “Soluble after: 0 h MeCN + 2.5% pyridine” value was “Yes”, the “Soluble after: 24 h MeCN + 2.5% pyridine” value is listed as “Yes” and the “Solubility after 24 hours … of pyridine” value is given as “solubility of the monomer is preserved; also recorded: kept in solution”. Further, in data set [1] (MeCN), the “Soluble after: 0 h MeCN” value was “Yes”, the “Soluble after: 24 h MeCN” value was “No” and the “Solubility after 24 hours in MeCN” value is on record as “not soluble; also recorded: not sufficient to keep the monomer in solution”.
As for `COc1ccc(C(OC[C@H]2O[C@@H](n3ccc(NC(C)=O)nc3=O)C[C@@H]2O[P@@]2O[C@H](c3ccccc3)[C@@H]3CCCN32)(c2ccccc2)c2ccc(OC)cc2)cc1` [L-DNA C], in data set [1], the “Soluble after: 0 h MeCN + 2.5% pyridine” value is recorded as “Yes” and the “Soluble after: 24 h MeCN + 2.5% pyridine” value was “Yes”. In data set [1] (MeCN), the “Soluble after: 0 h MeCN” value is “Yes” and the “Soluble after: 24 h MeCN” value is on record as “No”.
As to `COc1ccc(C(OC[C@H]2O[C@@H](n3cnc4c(=O)[nH]c(/N=C/N(C)C)nc43)C[C@@H]2O[P@@]2O[C@H](c3ccccc3)[C@@H]3CCCN32)(c2ccccc2)c2ccc(OC)cc2)cc1` [L-DNA G], in data set [1], the “Soluble after: 0 h MeCN + 2.5% pyridine” value was “Yes” and the “Soluble after: 24 h MeCN + 2.5% pyridine” value is given as “Yes”. Besides, in data set [1] (MeCN), the “Soluble after: 0 h MeCN” value was “Yes” and the “Soluble after: 24 h MeCN” value is “No”.
For the compound `COc1ccc(C(OC[C@H]2O[C@@H](n3cc(C)c(=O)[nH]c3=O)C[C@@H]2O[P@@]2O[C@H](c3ccccc3)[C@@H]3CCCN32)(c2ccccc2)c2ccc(OC)cc2)cc1` [L-DNA T], in data set [1], the “Soluble after: 0 h MeCN + 2.5% pyridine” value was “Yes” and the “Soluble after: 24 h MeCN + 2.5% pyridine” value is “Yes”. Also, in data set [1] (MeCN), the “Soluble after: 0 h MeCN” value is recorded as “Yes” and the “Soluble after: 24 h MeCN” value is “No”.
Take `COc1ccc(C(OCC23COC(C(n4cnc5c(NC(=O)c6ccccc6)ncnc54)O2)C3OP2OC(c3ccccc3)C3CCCN32)(c2ccccc2)c2ccc(OC)cc2)cc1` [L-LNA A]: the “Stability in MeCN with Et3N after 24 hours” value in data set [2] (MeCN + Et3N approximately 5-10 eq, 24 hours) is given as “completely stable”. In addition, the “Stability in MeCN with Et3N after 48 hours” value in data set [2] (MeCN + Et3N approximately 5-10 eq, 48 hours) is on record as “majority of the L-LNA A is preserved”. For the same compound, the “Stability in MeCN after 24 hours” value in data set [2] (MeCN only, 24 hours, room temperature) is “most of the L-LNA A was degraded”. Further, the “Stability in MeCN after 48 hours” value in data set [2] (MeCN only, 48 hours, room temperature) is recorded as “completely degraded”.
As to `COc1ccc(C(OCC23COC(C(n4cnc5c(=O)[nH]c(N=CN(C)C)nc54)O2)C3OP2OC(c3ccccc3)C3CCCN32)(c2ccccc2)c2ccc(OC)cc2)cc1` [L-LNA G-DMF], in data set [1], the “Soluble after: 0 h MeCN + 2.5% pyridine” value is “No” and the “Soluble after: 24 h MeCN + 2.5% pyridine” value is “No”. In data set [1] (MeCN), the “Soluble after: 0 h MeCN” value is recorded as “No” and the “Soluble after: 24 h MeCN” value is “No”. In addition, the “Solubility in most solvents” value in data set [1] (MeCN, MeCN:DCE, MeCN:Tol, MeCN:acetone, Dioxane, and THF) was “unsoluble”. In addition, the “Solubility in remaining solvents” value in data set [1] (MeCN:DCM, DMF, DMSO, NMP, DCM, DCE, and Toluene) is recorded as “soluble”. Further, the “Solubility in acetonitrile solvents” value in data set [1] (acetonitrile solvents) was “poorly soluble”. Besides, the “Amidite left after 24 hours” value in data set [2] (DCM (best solvent), 24 hours, room temperature) is recorded as 10%. Besides, in data set [2] (MeCN:DCM, DMF, DMSO, NMP, DCM, DCE, and Toluene, 24 hours), the “Stability in the solvents where the monomer is soluble” value is “tremendous instability”.
Take `COc1ccc(C(OC[C@@]23CO[C@@H]([C@H](n4cnc5c(=O)[nH]c(NC(=O)C(C)C)nc54)O2)[C@@H]3O[P@]2O[C@H](c3ccccc3)[C@@H]3CCCN32)(c2ccccc2)c2ccc(OC)cc2)cc1` [L-LNA-G-iBu]: in data set [1], the “Soluble after: 0 h MeCN + 2.5% pyridine” value was “Yes” and the “Soluble after: 24 h MeCN + 2.5% pyridine” value is given as “Yes”. The “Soluble after: 0 h MeCN” value in data set [1] (MeCN) is “Yes”. The “Solubility in all solvents investigated” value in data set [1] (all solvents investigated (12 different)) is listed as “soluble”.
